This note sets out measurements from patent publication US20260258035A1, “FIVE-MEMBERED AND SIX-MEMBERED NITROGEN-CONTAINING COMPOUND, AND INTERMEDIATE, PREPARATION METHOD AND USE THEREOF” (HANGZHOU SYNRX THERAPEUTICS BIOMEDICAL TECHNOLOGY CO., LTD., priority 2022, published 2026).

Like-named read-outs stand apart in the source and are kept apart here.

The target of experiment [1] is PARG (Homo sapiens, UniProt Q86W56). The experiment is described as follows: Biochemical assay (PARG, TFMU-ADPr substrate).
Sequence of PARG (Q86W56 whole entry): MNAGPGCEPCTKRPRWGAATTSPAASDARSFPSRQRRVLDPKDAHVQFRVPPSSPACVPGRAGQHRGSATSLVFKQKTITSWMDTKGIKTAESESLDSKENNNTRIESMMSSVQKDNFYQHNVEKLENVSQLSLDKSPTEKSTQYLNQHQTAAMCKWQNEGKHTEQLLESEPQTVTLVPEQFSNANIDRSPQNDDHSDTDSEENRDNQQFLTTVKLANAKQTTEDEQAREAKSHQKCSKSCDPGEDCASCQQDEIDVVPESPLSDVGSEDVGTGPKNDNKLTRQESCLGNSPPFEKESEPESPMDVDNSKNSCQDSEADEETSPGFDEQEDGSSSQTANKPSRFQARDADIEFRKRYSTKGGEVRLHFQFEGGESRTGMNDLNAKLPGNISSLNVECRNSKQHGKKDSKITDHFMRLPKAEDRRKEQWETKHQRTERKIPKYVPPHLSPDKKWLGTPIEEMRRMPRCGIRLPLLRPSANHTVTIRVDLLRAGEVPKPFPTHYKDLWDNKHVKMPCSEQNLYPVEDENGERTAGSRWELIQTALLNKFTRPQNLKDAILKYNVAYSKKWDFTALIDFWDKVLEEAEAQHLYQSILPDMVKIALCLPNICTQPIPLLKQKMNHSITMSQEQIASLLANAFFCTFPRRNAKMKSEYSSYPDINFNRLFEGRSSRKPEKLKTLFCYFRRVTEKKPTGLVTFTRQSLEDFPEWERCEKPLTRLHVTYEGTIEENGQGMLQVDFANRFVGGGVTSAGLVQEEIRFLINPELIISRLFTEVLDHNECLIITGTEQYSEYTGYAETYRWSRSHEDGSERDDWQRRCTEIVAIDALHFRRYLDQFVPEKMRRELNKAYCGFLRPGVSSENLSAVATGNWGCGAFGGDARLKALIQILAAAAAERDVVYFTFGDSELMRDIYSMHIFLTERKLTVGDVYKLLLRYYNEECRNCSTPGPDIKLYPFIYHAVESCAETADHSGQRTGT
For experiment [2], the system named is HCC1806. Put plainly: Cell viability assay (CellTiter-Glo). Type of experiment: cell-based, Human. The conditions noted are these: HCC1806, 7 days, CellTiter-Glo, read-out: IC50 (nM) in cell viability assay.
Where [3] appears, read: 4 nM PARG, 66.2 uM TFMU-ADPr, 3 min at room temperature.

On to `CC(C)N1CC(C(=O)N2CCN(c3cc(S(=O)(=O)NC4(C#N)CC4)cn4c(-c5nnc(C(F)F)s5)ncc34)C[C@H]2C)C1` [Example 295, (R)-N-(1-cyanocyclopropyl)-3-(5-(difluoromethyl)-1,3,4-thiadiazol-2-yl)-8-(4-(1-isopropylazetidine-3-carbonyl)-3-methylpiperazin-1-yl)imidazo[1,5-a]pyridine-6-sulfonamide], for which the IC50 was found to be 39.8 nM in experiment [1] (PARG, TFMU-ADPr substrate) and 2820 nM in experiment [2] (Homo sapiens, HCC1806, 168 h).

Take `C[C@H]1CN(c2cc(S(=O)(=O)NC3(CF)COC3)cn3c(-c4nnc(C(F)F)s4)ncc23)C[C@H](C)N1` [Example 359, 3-(5-(difluoromethyl)-1,3,4-thiadiazol-2-yl)-8-((3S,5S)-3,5-dimethylpiperazin-1-yl)-N-(3-(fluoromethyl)oxetan-3-yl)imidazo[1,5-a]pyridine-6-sulfonamide]: the IC50 in experiment [1] (PARG, TFMU-ADPr substrate) worked out at 1.44 nM; in experiment [2] (Homo sapiens, HCC1806, 168 h), 47 nM.

Take `CC(C)C(=O)N1CCN(c2cc(S(=O)(=O)NC3(C)CC3)cn3c(-c4nnc(C(F)(F)F)s4)nnc23)CC1` [Example 388, 8-(4-isobutyrylpiperazin-1-yl)-N-(1-methylcyclopropyl)-3-(5-(trifluoromethyl)-1,3,4-thiadiazol-2-yl)-[1,2,4]triazolo[4,3-a]pyridine-6-sulfonamide]: the IC50 in experiment [1] (PARG, TFMU-ADPr substrate) was found to be 10 nM; in experiment [2] (Homo sapiens, HCC1806, 168 h) it was 320 nM.

Turning to `CN1CC[C@@H]1C(=O)N1CCN(c2c(F)c(S(=O)(=O)NC3(C)CC3)cn3c(-c4nnc(C(F)(F)F)s4)ncc23)CC1` [Example 332, (R)-7-fluoro-8-(4-(1-methylazetidine-2-carbonyl)piperazin-1-yl)-N-(1-methylcyclopropyl)-3-(5-(trifluoromethyl)-1,3,4-thiadiazol-2-yl)imidazo[1,5-a]pyridine-6-sulfonamide], the IC50 came out at 10.8 nM in experiment [1] (PARG, TFMU-ADPr substrate) and 745 nM in experiment [2] (Homo sapiens, HCC1806, 168 h).

Regarding `CN(C)C(=O)C1CCN(c2cc(S(=O)(=O)NC3(C#N)CC3)cn3c(-c4nnc(C(F)F)s4)ncc23)CC1` [Example 212, 1-(6-(N-(1-cyanocyclopropyl)sulfamoyl)-3-(5-(difluoromethyl)-1,3,4-thiadiazol-2-yl)imidazo[1,5-a]pyridin-8-yl)-N,N-dimethylpiperidine-4-carboxamide], the IC50 in experiment [1] (PARG, TFMU-ADPr substrate) turned out to be 110 nM; in experiment [2] (Homo sapiens, HCC1806, 168 h) it was 3000 nM.

Turning to `CN(C)CCOC1(C(=O)N2CCN(c3cc(S(=O)(=O)NC4(C)CC4)cn4c(-c5nnc(C(F)(F)F)s5)ncc34)CC2)CC1` [Example 384, 8-(4-(1-(2-(dimethylamino)ethoxy)cyclopropane-1-carbonyl)piperazin-1-yl)-N-(1-methylcyclopropyl)-3-(5-(trifluoromethyl)-1,3,4-thiadiazol-2-yl)imidazo[1,5-a]pyridine-6-sulfonamide], the IC50 is under 0.15 nM in experiment [1] (PARG, TFMU-ADPr substrate) and 17.6 nM in experiment [2] (Homo sapiens, HCC1806, 168 h).

With `CC(C)C(=O)N1CCN(c2cc(S(=O)(=O)NC3(C#N)CC3)cn3c(-c4nnc(C(F)(F)F)s4)ncc23)C[C@H]1C` [Example 205, (R)-N-(1-cyanocyclopropyl)-8-(4-isobutyryl-3-methylpiperazin-1-yl)-3-(5-(trifluoromethyl)-1,3,4-thiadiazol-2-yl)imidazo[1,5-a]pyridine-6-sulfonamide], the IC50 was 22.9 nM in experiment [1] (PARG, TFMU-ADPr substrate) and 699 nM in experiment [2] (Homo sapiens, HCC1806, 168 h).

Regarding `COCC1CN(c2cc(S(=O)(=O)NC3(C)COC3)cn3c(-c4nnc(C(F)(F)F)s4)nc(Cl)c23)CCN1` (stereo not drawn) [Example 135, 1-chloro-8-(3-(methoxymethyl)piperazin-1-yl)-N-(3-methyloxetan-3-yl)-3-(5-(trifluoromethyl)-1,3,4-thiadiazol-2-yl)imidazo[1,5-a]pyridine-6-sulfonamide], the IC50 is 12.6 nM in experiment [1] (PARG, TFMU-ADPr substrate) and 213 nM in experiment [2] (Homo sapiens, HCC1806, 168 h).

On to `C[C@@H]1CN(c2cc(S(=O)(=O)NC3(C#N)CC3)cn3c(-c4nnc(C(F)F)s4)ncc23)CCN1C(CO)C(F)(F)F` (stereo partly drawn) [Example 144, N-(1-cyanocyclopropyl)-3-(5-(difluoromethyl)-1,3,4-thiadiazol-2-yl)-8-((3R)-3-methyl-4-(1,1,1-trifluoro-3-hydroxypropan-2-yl)piperazin-1-yl)imidazo[1,5-a]pyridine-6-sulfonamide], for which the IC50 in experiment [1] (setting [3]) is 100 to 500 nM; in experiment [1] (PARG, TFMU-ADPr substrate), 263 nM; in experiment [2] it was 7020 nM; in experiment [2] (Homo sapiens, HCC1806, 168 h), 5000 to 30000 nM.

In the case of `N#CC1(NS(=O)(=O)c2cc(N3CCN(C(=O)C4CC4(F)F)CC3)c3cnc(-c4nnc(C(F)(F)F)s4)n3c2)CC1` (stereo not drawn) [Example 240, N-(1-cyanocyclopropyl)-8-(4-(2,2-difluorocyclopropane-1-carbonyl)piperazin-1-yl)-3-(5-(trifluoromethyl)-1,3,4-thiadiazol-2-yl)imidazo[1,5-a]pyridine-6-sulfonamide], the IC50 in experiment [1] (PARG, TFMU-ADPr substrate) is 13.2 nM; in experiment [2] (Homo sapiens, HCC1806, 168 h), 2440 nM.

`N#CC1(NS(=O)(=O)c2cc(N3CCN(C(=O)c4ccno4)CC3)c3cnc(-c4nnc(C(F)(F)F)s4)n3c2)CC1` [Example 255, N-(1-cyanocyclopropyl)-8-(4-(isoxazole-5-carbonyl)piperazin-1-yl)-3-(5-(trifluoromethyl)-1,3,4-thiadiazol-2-yl)imidazo[1,5-a]pyridine-6-sulfonamide]: the IC50 stood at 17.4 nM in experiment [1] (PARG, TFMU-ADPr substrate) and 420 nM in experiment [2] (Homo sapiens, HCC1806, 168 h).

Take `CC1(NS(=O)(=O)c2cc(N3CCN(C(=O)C4(CO)CC4)CC3)c3cnc(-c4nnc(C(F)(F)F)s4)n3c2)CC1` [Example 345, 8-(4-(1-(hydroxymethyl)cyclopropane-1-carbonyl)piperazin-1-yl)-N-(1-methylcyclopropyl)-3-(5-(trifluoromethyl)-1,3,4-thiadiazol-2-yl)imidazo[1,5-a]pyridine-6-sulfonamide]: the IC50 in experiment [1] (PARG, TFMU-ADPr substrate) turned out to be 5.01 nM; in experiment [2] (Homo sapiens, HCC1806, 168 h), 374 nM.

`CC(=O)N1CCN(c2cc(S(=O)(=O)NC3(C#N)CC3)cn3c(-c4nnc(C(F)(F)F)s4)ncc23)CC1` [Example 173, 8-(4-acetylpiperazin-1-yl)-N-(1-cyanocyclopropyl)-3-(5-(trifluoromethyl)-1,3,4-thiadiazol-2-yl)imidazo[1,5-a]pyridine-6-sulfonamide]: the IC50 turned out to be 50.1 nM in experiment [1] (PARG, TFMU-ADPr substrate) and 400 nM in experiment [2] (Homo sapiens, HCC1806, 168 h).

Regarding `CC(C)C(=O)N1CCN(c2cc(S(=O)(=O)N[C@H]3C[C@H]3F)cn3c(-c4nnc(C(F)F)s4)ncc23)CC1` [Example 82, 3-(5-(difluoromethyl)-1,3,4-thiadiazol-2-yl)-N-((1S,2R)-2-fluorocyclopropyl)-8-(4-isobutyrylpiperazin-1-yl)imidazo[1,5-a]pyridine-6-sulfonamide], the IC50 is 100 to 500 nM in experiment [1] (setting [3]); 209 nM in experiment [1] (PARG, TFMU-ADPr substrate); 7050 nM in experiment [2]; 5000 to 30000 nM in experiment [2] (Homo sapiens, HCC1806, 168 h).

Regarding `CC1(NS(=O)(=O)c2cc(N3CCN(C(=O)c4ncc[nH]4)CC3)c3cnc(-c4nnc(C(F)F)s4)n3c2)CC1` [Example 339, 8-(4-(1H-imidazole-2-carbonyl)piperazin-1-yl)-3-(5-(difluoromethyl)-1,3,4-thiadiazol-2-yl)-N-(1-methylcyclopropyl)imidazo[1,5-a]pyridine-6-sulfonamide], the IC50 stood at 3.16 nM in experiment [1] (PARG, TFMU-ADPr substrate) and 226 nM in experiment [2] (Homo sapiens, HCC1806, 168 h).

On to `N#CC1(NS(=O)(=O)c2cc(N3CCNC(=O)C3)c3cnc(-c4nnc(C(F)(F)F)s4)n3c2)CC1` [Example 248, N-(1-cyanocyclopropyl)-8-(3-oxopiperazin-1-yl)-3-(5-(trifluoromethyl)-1,3,4-thiadiazol-2-yl)imidazo[1,5-a]pyridine-6-sulfonamide], for which the half-maximal inhibitory concentration (IC50) is 692 nM in experiment [1] (PARG, TFMU-ADPr substrate) and 6440 nM in experiment [2] (Homo sapiens, HCC1806, 168 h).
